Experimental data reported in article PMC12677653, “Inhibition of Tumor Lipogenesis and Growth by Peptide‐Based Targeting of SREBP Activation” (Advanced Science, 2025).

Experiments:
[1] = test system: Insig1 S207/Insig2 S151 phosphorylation; assay: Immunoblot of Insig1 S207/Insig2 S151 phosphorylation, Huh7; format: cell-based, human; settings: Huh7 cells, peptide 7.5 or 15 µM 1 h before IGF1 100 ng/mL
Experimental: Figure 1 The Insig1/2 loop 1 peptide binds to S90‐phosphorylated PCK1 and blocks PCK1‐mediated SREBP activation and tumor cell proliferation. Immunoblotting analyses were performed using the indicated antibodies; representative results from three independent experiments are shown (IP, immunoprecipitation; WB, western blot). a) Huh7 cells expressing various Insig1 (top) or Insig2 (bottom) truncation mutants were treated with or without IGF1 (100 ng mL^−1) for 1 h. b,c) Biolayer interferometry assays (Sartorius Octet) were employed to measure the binding affinity of Insig1/2 loop 1 peptide to GST‐PCK1 or GST‐PCK1 pS90 proteins. […] Statistical significance was determined by one‐way analysis of variance (ANOVA). g) Following pretreatment with Insig1/2 loop 1 peptide (15 µM) and IGF1 stimulation (100 ng mL^−1, 8 h), Huh7 cells were subjected to immunofluorescence analysis (scale bar: 10 µm). h) Quantitative PCR analysis of SREBP1 target gene GPAM in Huh7 cells pretreated with Insig1/2 loop 1 peptide (15 µM) and stimulated with IGF1 (100 ng mL^−1) for 10 h. […] Statistical significance was determined by one‐way analysis of variance (ANOVA). i) Quantitative PCR analysis of SREBP1 target gene FASN in Huh7 cells pretreated with Insig1/2 loop 1 peptide (15 µM) and stimulated with IGF1 (100 ng mL^−1) for 10 h. […]

[2] = test system: SREBP1 activity; assay: SRE luciferase assay; format: cell-based, human; settings: Huh7 cells, peptide 15 µM 1 h, IGF1 100 ng/mL 14 h, normalized to β-galactosidase, n = 3

Sequence: RKKRRQRRRLYPCIDSHLGEPHKFKRE [Insig1/2 loop 1 peptide]
- Insig1 S207/Insig2 S151 phosphorylation [1]: markedly inhibited
- SREBP1 activity (SRE luciferase) [2]: markedly inhibited
